Patent US9682967B2

Experiments:
mSortilin = mSortilin (Mus musculus (Mouse), UniProt Q6PHU5); assay: mSortilin affinity assay (displacement of 3H-neurotensin, SPA); format: binding
Description: Mouse his-Sortilin was purchased from R&D Systems.
The Sortilin assay was performed in total volume of 40 ul in 50 mM HEPES pH 7.4 assay buffer containing 100 mM NaCl, 2.0 mM CaCl2, 0.1% BSA and 0.1% Tween-20. Varying concentration of compounds where pre-incubated for 30 min at RT with 50 nM of 6his-Sortilin. […] Ni chelate imaging beads (Perkin elmer) was added and the plate was slowly shacked in the dark for 60 min. The imaging beads were allowed minimum 6 hours settling time before the plate was read on a ViewLux with 360 sec exposure time. Dose-response evaluation of compounds was performed with 10 concentrations of drugs (covering 3 decades). IC50 values were calculated by nonlinear regression using the sigmoid concentration-response (variable slope) using Xlfit 4 (IDBS, UK). The results were given as Ki values (nM) derived from computer fitted IC50 values converted to Ki values using the Cheng-Prusoff equation (Ki=IC50/(1+(L/Kd))).

[1] = target: human sortilin (S-18 cells) (Homo sapiens (Human), UniProt Q99523); assay: Endogenous PGRN endocytosis assay (PGRN ELISA of media); format: cell-based; conditions: for PGRN levels in cell culture media (FIG. 1): PGRN allowed to accumulate 24 hrs, then compounds for further 24 hrs
[2] = target: human sortilin (HEK 293 / S-18 cells) (Homo sapiens (Human), UniProt Q99523); assay: Cellomics progranulin assay (PGRN binding/endocytosis, staining intensity); format: cell-based; conditions: compounds 30 min, then PGRN 60 min
human sortilin (HEK 293 / S-18 cells), sequence (Q99523 78-831): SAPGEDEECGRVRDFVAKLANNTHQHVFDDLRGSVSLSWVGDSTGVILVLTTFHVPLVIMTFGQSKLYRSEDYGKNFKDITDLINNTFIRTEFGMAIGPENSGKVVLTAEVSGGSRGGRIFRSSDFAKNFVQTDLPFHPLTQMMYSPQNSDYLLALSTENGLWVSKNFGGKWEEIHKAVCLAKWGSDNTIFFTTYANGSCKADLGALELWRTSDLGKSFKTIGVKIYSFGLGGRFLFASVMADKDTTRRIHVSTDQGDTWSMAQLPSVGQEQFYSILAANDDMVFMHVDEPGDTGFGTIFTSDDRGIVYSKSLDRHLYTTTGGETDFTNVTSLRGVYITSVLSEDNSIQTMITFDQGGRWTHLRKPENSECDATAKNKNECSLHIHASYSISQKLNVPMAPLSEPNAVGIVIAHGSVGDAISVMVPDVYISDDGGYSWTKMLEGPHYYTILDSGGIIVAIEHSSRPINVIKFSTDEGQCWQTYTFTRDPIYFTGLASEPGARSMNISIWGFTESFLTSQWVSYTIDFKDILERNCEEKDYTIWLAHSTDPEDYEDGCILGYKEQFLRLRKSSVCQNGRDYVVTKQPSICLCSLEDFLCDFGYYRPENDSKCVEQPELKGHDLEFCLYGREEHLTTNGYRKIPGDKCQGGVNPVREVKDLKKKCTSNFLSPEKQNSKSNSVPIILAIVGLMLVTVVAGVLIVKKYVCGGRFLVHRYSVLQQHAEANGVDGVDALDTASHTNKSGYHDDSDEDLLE
Description: Cellomics Progranulin Assay
Transfected HEK 293 cells (with control or sortilin expression plasmids) or stable HEK293 cells expressing human sortilin (S-18) were used in this assay. Cells are trypsinized and plated in 96 well plates. In the case of transiently transfected cells, they were plated 24 hrs after transfection in 96 well plates. Next day, media was changed completely and test compounds added to cells for 30 min. followed by PGRN for 60 min. At the end of the study (after 1.5 hrs), the cells were fixed and stained for sortilin and progranulin. All stained plates were analyzed by Cellomics Array Scan (Thermo Fischer) and average staining intensity for PGRN and sortilin are calculated per cell in each well.

hSortilin = hSortilin (Homo sapiens (Human), UniProt Q99523); assay: hSortilin affinity assay (displacement of 3H-neurotensin, SPA); format: binding; conditions: for IC50: [3H]-Neurotensin 5 nM, 150 nM 6his-Sortilin, read-out: hSortilin NTS Binding IC50; for Ki: from IC50 by Cheng-Prusoff, Kd neurotensin 100 nM
hSortilin, sequence (Q99523 34-755): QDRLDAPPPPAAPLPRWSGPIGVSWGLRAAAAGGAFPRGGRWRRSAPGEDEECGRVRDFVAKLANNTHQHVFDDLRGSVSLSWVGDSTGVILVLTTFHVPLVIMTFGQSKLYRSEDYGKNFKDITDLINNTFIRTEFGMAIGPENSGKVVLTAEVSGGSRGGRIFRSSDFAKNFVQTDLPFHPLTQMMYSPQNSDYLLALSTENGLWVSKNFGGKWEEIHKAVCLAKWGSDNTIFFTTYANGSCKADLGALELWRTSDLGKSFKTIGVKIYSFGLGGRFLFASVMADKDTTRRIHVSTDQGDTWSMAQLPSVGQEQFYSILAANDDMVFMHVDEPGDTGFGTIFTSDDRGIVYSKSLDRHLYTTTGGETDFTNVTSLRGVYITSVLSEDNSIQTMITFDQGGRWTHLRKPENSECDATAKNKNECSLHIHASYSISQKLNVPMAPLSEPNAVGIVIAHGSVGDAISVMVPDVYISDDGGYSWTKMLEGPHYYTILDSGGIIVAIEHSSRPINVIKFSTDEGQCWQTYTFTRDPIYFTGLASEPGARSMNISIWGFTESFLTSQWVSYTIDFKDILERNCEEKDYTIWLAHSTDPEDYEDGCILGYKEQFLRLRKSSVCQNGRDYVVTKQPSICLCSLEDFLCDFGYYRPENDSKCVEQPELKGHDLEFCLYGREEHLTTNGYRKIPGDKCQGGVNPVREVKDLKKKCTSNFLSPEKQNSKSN

human sortilin (S-18 cells), sequence (Q99523 78-831): as the sequence (Q99523 78-831) above
mSortilin, sequence (Q6PHU5 74-825): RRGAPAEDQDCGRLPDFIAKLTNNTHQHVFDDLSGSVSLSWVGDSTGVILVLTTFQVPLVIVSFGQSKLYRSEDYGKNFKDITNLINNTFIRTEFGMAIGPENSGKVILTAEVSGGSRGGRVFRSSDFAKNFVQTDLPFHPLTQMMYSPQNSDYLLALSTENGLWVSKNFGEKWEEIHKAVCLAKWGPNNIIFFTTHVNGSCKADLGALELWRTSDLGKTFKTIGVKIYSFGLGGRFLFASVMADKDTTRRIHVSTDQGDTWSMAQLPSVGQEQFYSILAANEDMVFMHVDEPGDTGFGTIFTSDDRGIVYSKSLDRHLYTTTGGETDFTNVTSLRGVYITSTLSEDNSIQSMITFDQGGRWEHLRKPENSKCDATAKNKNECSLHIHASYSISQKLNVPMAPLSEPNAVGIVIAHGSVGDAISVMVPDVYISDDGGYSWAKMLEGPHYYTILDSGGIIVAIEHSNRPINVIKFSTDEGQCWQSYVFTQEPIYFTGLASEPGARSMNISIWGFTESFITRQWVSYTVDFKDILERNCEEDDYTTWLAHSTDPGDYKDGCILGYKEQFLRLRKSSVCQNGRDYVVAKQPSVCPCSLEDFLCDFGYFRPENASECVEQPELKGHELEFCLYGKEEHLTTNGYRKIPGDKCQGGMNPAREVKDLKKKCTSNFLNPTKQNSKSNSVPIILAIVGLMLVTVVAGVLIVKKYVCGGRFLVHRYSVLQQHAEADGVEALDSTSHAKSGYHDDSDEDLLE

Row | Molecule | IC50 (hSortilin) [nM] | Ki (hSortilin) [nM] | also measured
1 | Cc1cccc(NC(=O)c2ccc(C(F)(F)F)cc2C(=O)O)n1 [Example 1, N-(6-Methyl-pyridin-2-yl)-5-trifluoromethyl-phthalamic acid] |  |  | IC50 (mSortilin; [3H]-Neurotensin 5 nM, 50 nM 6his-Sortilin, read-out: mSortilin NTS Binding IC50): 220 nM; Ki (mSortilin; from IC50 by Cheng-Prusoff): 210 nM; increase in PGRN in cell culture media as compared to control wells ([1]; 10 uM, media collected on day 3): 85-100%; PGRN levels in cell culture media (FIG. 1) [1]: increase in PGRN levels; PGRN fluorescence intensity / binding or endocytosis of PGRN to sortilin expressing cells (FIG. 2) [2]: blocks binding or endocytosis of PGRN
2 | O=C(O)c1cc(C(F)(F)F)ccc1C(=O)NCc1cccnc1 [Example 40, N-Pyridin-3-ylmethyl-5-trifluoromethyl-phthalamic acid] | 4800 | 4570 | 
3 | CCCc1ccc(C(=O)Nc2cccc(C)n2)c(C(=O)O)c1 [Example 41, N-(6-Methyl-pyridin-2-yl)-5-propyl-phthalamic acid] | 3600 | 3430 | 
4 | C=C(C)c1ccc(C(=O)Nc2cccc(C)n2)c(C(=O)O)c1 [Example 42, N 5-Isopropenyl-N-(6-methyl-pyridin-2-yl)-phthalamic acid] | 5200 | 4950 | 
5 | Cc1cccc(NC(=O)c2ccc(C(C)C)cc2C(=O)O)n1 [Example 43, N 5-Isopropyl-N-(6-methyl-pyridin-2-yl)-phthalamic acid] | 1100 | 1050 | 
6 | Cc1nccc(NC(=O)c2ccc(C(F)(F)F)cc2C(=O)O)n1 [Example 44, 2-((2-methylpyrimidin-4-yl)carbamoyl)-5-(trifluoromethyl)benzoic acid] | 300 | 286 | 
7 | Cc1cnc(NC(=O)c2ccc(C(F)(F)F)cc2C(=O)O)nc1C [Example 45, 2-((4,5-dimethylpyrimidin-2-yl)carbamoyl)-5-(trifluoromethyl)benzoic acid] | 200 | 190 | 
8 | O=C(O)c1cc(C(F)(F)F)ccc1C(=O)Nc1ccc2c(n1)CCCC2 [Example 46, 2-((5,6,7,8-tetrahydroquinolin-2-yl)carbamoyl)-5-(trifluoromethyl)benzoic acid] | 88 | 84 | 
9 | Cc1cccc(NC(=O)c2cc(C(F)(F)F)c(C(F)(F)F)cc2C(=O)O)n1 [Example 47, 2-((6-methylpyridin-2-yl)carbamoyl)-4,5-bis(trifluoromethyl)benzoic acid] | 1200 | 1140 | 
10 | O=C(O)c1cc(C(F)(F)F)c(C(F)(F)F)cc1C(=O)Nc1ccc2c(n1)CCCC2 [Example 48, 2-((5,6,7,8-tetrahydroquinolin-2-yl)carbamoyl)-4,5-bis(trifluoromethyl)benzoic acid] | 760 | 721 | 
11 | Cc1ccc(NC(=O)c2cc(C(F)(F)F)c(C(F)(F)F)cc2C(=O)O)nc1C [Example 49, 2-((5,6-dimethylpyridin-2-yl)carbamoyl)-4,5-bis(trifluoromethyl)benzoic acid] | 750 | 734 | 
12 | Cc1nccc(NC(=O)c2cc(C(F)(F)F)c(C(F)(F)F)cc2C(=O)O)n1 [Example 50, 2-((2-methylpyrimidin-4-yl)carbamoyl)-4,5-bis(trifluoromethyl)benzoic acid] | 620 | 599 | 
13 | Cc1cc(NC(=O)c2ccc(C(F)(F)F)cc2C(=O)O)cc(C)n1 [Example 51, 2-((2,6-dimethylpyridin-4-yl)carbamoyl)-5-(trifluoromethyl)benzoic acid] | 640 | 614 | 
14 | scrambled neurotensin: scrambled neurotensin, sequence LIYPRNEYELRKP (SEQ ID NO:1); negative control (Scrambled Human Neurotensin) [reference compound] |  |  | PGRN levels in cell culture media (FIG. 1) [1]: did not have any effect; PGRN fluorescence intensity / binding or endocytosis of PGRN to sortilin expressing cells (FIG. 2) [2]: significantly increased
